Measurements taken from PubChem BioAssay (NCI).
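A five-concentration, 48-hour dose response in 96-well plates underlies each endpoint, interpolated linearly between surrounding concentrations. Abbreviation: GI50, concentration required for 50% inhibition of growth. TGI: concentration producing complete growth inhibition.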

Tests used:
Experiment in all cases: inhibition of tumour cell growth, NCI panel, 48 h
K-562 leukemia = system: K-562 leukemia
HCT-116 colon = system: HCT-116 colon
UACC-257 melanoma = system: UACC-257 melanoma
LOX IMVI melanoma = system: LOX IMVI melanoma
OVCAR-5 ovarian = system: OVCAR-5 ovarian
SF-539 CNS = system: SF-539 CNS
786-0 renal = system: 786-0 renal
SK-MEL-2 melanoma = system: SK-MEL-2 melanoma
MCF7 breast = system: MCF7 breast
SF-268 CNS = system: SF-268 CNS

SMILES: COc1cc2c(cc1OCCCOc1cc3c(cc1OC)C(=O)N1CC(F)(F)C[C@H]1C=N3)N=C[C@@H]1CC(F)(F)CN1C2=O
- GI50 (K-562 leukemia): 0.601 µM
- TGI (K-562 leukemia): 4.81 µM
- GI50 (HCT-116 colon): 0.415 µM
- TGI (HCT-116 colon): 2.25 µM
- GI50 (UACC-257 melanoma): 2 µM
- TGI (UACC-257 melanoma): 5.46 µM
- GI50 (LOX IMVI melanoma): 0.256 µM
- TGI (LOX IMVI melanoma): 2.65 µM
- GI50 (OVCAR-5 ovarian): 1.74 µM
- TGI (OVCAR-5 ovarian): 8.99 µM
- GI50 (SF-539 CNS): 0.165 µM
- TGI (SF-539 CNS): 2.72 µM
- TGI (786-0 renal): 0.877 µM
- GI50 (SK-MEL-2 melanoma): 2.32 µM
- TGI (SK-MEL-2 melanoma): 12.8 µM
- GI50 (MCF7 breast): 0.195 µM
- TGI (MCF7 breast): 11.4 µM
- GI50 (SF-268 CNS): 0.216 µM
- TGI (SF-268 CNS): 17.8 µM

SMILES: NCc1ccc(O)c(O)c1O
- TGI (K-562 leukemia): 60.6 µM
- TGI (HCT-116 colon): 30.5 µM
- TGI (UACC-257 melanoma): > 75.6 µM
- TGI (LOX IMVI melanoma): 32 µM
- TGI (OVCAR-5 ovarian): 40.5 µM
- TGI (SF-539 CNS): > 62.5 µM
- TGI (786-0 renal): 30.1 µM
- TGI (SK-MEL-2 melanoma): 57.2 µM
- TGI (MCF7 breast): 36.3 µM
- TGI (SF-268 CNS): 61.6 µM

SMILES: CN(C)C=O.CN(C)C=O.CN1C(C(=O)Nc2ccccn2)=C([O-])c2ccccc2S1(=O)=O.CN1C(C(=O)Nc2ccccn2)=C([O-])c2ccccc2S1(=O)=O.[Cu+2]
- GI50 (K-562 leukemia): > 100 µM
- TGI (K-562 leukemia): > 100 µM
- TGI (HCT-116 colon): > 100 µM
- TGI (UACC-257 melanoma): > 100 µM
- TGI (LOX IMVI melanoma): > 100 µM
- TGI (OVCAR-5 ovarian): > 100 µM
- TGI (SF-539 CNS): > 100 µM
- TGI (786-0 renal): > 100 µM
- TGI (SK-MEL-2 melanoma): > 100 µM
- TGI (SF-268 CNS): > 100 µM

SMILES: CCc1cc(C)cc2[n+]1CC=C2C
- TGI (UACC-257 melanoma): > 100 µM
- TGI (LOX IMVI melanoma): > 100 µM
- TGI (OVCAR-5 ovarian): > 100 µM
- TGI (SF-539 CNS): > 100 µM
- TGI (786-0 renal): > 100 µM
- TGI (SK-MEL-2 melanoma): > 100 µM
- TGI (SF-268 CNS): > 100 µM

SMILES: Cn1ncc2c(=O)[nH]c(-c3ccccc3)nc21
- TGI (K-562 leukemia): > 100 µM
- TGI (UACC-257 melanoma): > 100 µM
- TGI (LOX IMVI melanoma): > 100 µM
- TGI (OVCAR-5 ovarian): > 100 µM
- TGI (SF-539 CNS): > 100 µM
- TGI (SK-MEL-2 melanoma): > 100 µM
- TGI (SF-268 CNS): > 100 µM

SMILES: O=C(O)\C=C/C=C/C=C/C=C/C(=O)O
- TGI (K-562 leukemia): > 100 µM
- TGI (HCT-116 colon): > 100 µM
- TGI (UACC-257 melanoma): > 100 µM
- TGI (LOX IMVI melanoma): > 100 µM
- TGI (OVCAR-5 ovarian): > 100 µM
- TGI (SF-539 CNS): > 100 µM
- TGI (786-0 renal): > 100 µM
- TGI (SK-MEL-2 melanoma): > 100 µM
- TGI (SF-268 CNS): > 100 µM

SMILES: NC(CCCNc1ccc(O)cc1)C(=O)O (configuration not stated)
- TGI (K-562 leukemia): > 72.1 µM
- TGI (HCT-116 colon): 32.1 µM
- TGI (UACC-257 melanoma): > 70.5 µM
- TGI (LOX IMVI melanoma): 33.3 µM
- TGI (OVCAR-5 ovarian): > 100 µM
- TGI (SF-539 CNS): 83.5 µM
- TGI (786-0 renal): 31.5 µM
- TGI (SK-MEL-2 melanoma): > 66.8 µM
- TGI (SF-268 CNS): > 62.6 µM

SMILES: CC(C)C(C)C(O)C(O)C(C)C1CCC2C3COC(=O)C4CC(O)C(O)CC4(C)C3CCC12C (configuration not stated)
- TGI (K-562 leukemia): > 100 µM
- TGI (HCT-116 colon): > 100 µM
- TGI (UACC-257 melanoma): > 100 µM
- TGI (LOX IMVI melanoma): > 100 µM
- TGI (OVCAR-5 ovarian): > 100 µM
- TGI (SF-539 CNS): > 100 µM
- TGI (786-0 renal): > 100 µM
- TGI (SK-MEL-2 melanoma): > 100 µM
- TGI (MCF7 breast): > 100 µM
- TGI (SF-268 CNS): > 100 µM

SMILES: CC1(C)CCCC2(C)C3=C(CCC12)C(=O)OC3 (configuration not stated)
- TGI (HCT-116 colon): > 100 µM
- TGI (UACC-257 melanoma): > 100 µM
- TGI (LOX IMVI melanoma): > 100 µM
- TGI (OVCAR-5 ovarian): > 100 µM
- TGI (SF-539 CNS): > 100 µM
- TGI (786-0 renal): > 100 µM
- TGI (SK-MEL-2 melanoma): > 100 µM
- TGI (MCF7 breast): > 100 µM
- TGI (SF-268 CNS): > 100 µM

SMILES: COC(=O)C12OCC34C(CC5C(C)C6=CC(=O)OC6=CC5(C)C3C(O)C1O)OC(=O)C(OC(C)=O)C24 (configuration not stated)
- TGI (K-562 leukemia): 54.3 µM
- TGI (HCT-116 colon): 37.2 µM
- TGI (UACC-257 melanoma): 30 µM
- TGI (LOX IMVI melanoma): 37 µM
- TGI (OVCAR-5 ovarian): 44.2 µM
- TGI (SF-539 CNS): 34 µM
- TGI (786-0 renal): 29.1 µM
- TGI (SK-MEL-2 melanoma): 21 µM
- TGI (SF-268 CNS): 40.1 µM

SMILES: O=C(Nc1ccc(-n2ccc3c(NC(=O)c4ccccc4)ncnc32)cc1)Nc1ccc(Cl)c(C(F)(F)F)c1
- GI50 (K-562 leukemia): 1.45 µM
- TGI (K-562 leukemia): 5.04 µM
- GI50 (HCT-116 colon): 1.47 µM
- TGI (HCT-116 colon): 2.96 µM
- GI50 (UACC-257 melanoma): 2.76 µM
- TGI (UACC-257 melanoma): 6.39 µM
- GI50 (LOX IMVI melanoma): 2 µM
- TGI (LOX IMVI melanoma): 6.77 µM
- GI50 (OVCAR-5 ovarian): 1.66 µM
- TGI (OVCAR-5 ovarian): 3.89 µM
- GI50 (SF-539 CNS): 0.654 µM
- TGI (SF-539 CNS): 3.9 µM
- GI50 (SK-MEL-2 melanoma): 2.44 µM
- TGI (SK-MEL-2 melanoma): 5.66 µM
- GI50 (MCF7 breast): 1.64 µM
- TGI (MCF7 breast): 3.24 µM
- GI50 (SF-268 CNS): 2.02 µM
- TGI (SF-268 CNS): 4.99 µM
